Results as given in publication PMC5895059, “Scaffold hopping from (5-hydroxymethyl) isophthalates to multisubstituted pyrimidines diminishes binding affinity to the C1 domain of protein kinase C” (PLoS ONE, 2018).
Values joined by “and” are separate entries in the source; they are usually repeats but may differ in a detail not shown here. Identical values can stand only once.

Molecular target: PKCα (Homo sapiens, UniProt P17252)
Experiment: [3H]PDBu displacement, 96-well plate filtration binding assay
Details: for Displacement assay raw data (CCPM): single replicate wells; for Residual [^3H]PDBu binding to PKCα (% of control): 20 μM compound concentration, mean + SEM, n = 2–8

With `CCCCCCCOC(=O)c1cc(C(=O)OCCCCCCC)nc(CO)n1` [Compound 1a, Diheptyl 2-(hydroxymethyl)pyrimidine-4,6-dicarboxylate] the “Displacement assay raw data (CCPM)” value (0,2 µM test substance) was 5564 CCPM and 8472 CCPM and 8055 CCPM and 9131 CCPM and 5172 CCPM and 4908 CCPM, the “Displacement assay raw data (CCPM)” value (1 µM test substance) was 5111 CCPM and 8836 CCPM and 8480 CCPM and 8743 CCPM and 5670 CCPM and 5038 CCPM and the “Displacement assay raw data (CCPM)” value (4 µM test substance) was 5090 CCPM and 8165 CCPM and 8077 CCPM and 7980 CCPM and 5413 CCPM and 5275 CCPM. For the same compound, the “Displacement assay raw data (CCPM)” value (10 µM test substance) was 5789 CCPM and 8577 CCPM and 7653 CCPM and 8759 CCPM and 5036 CCPM and 5595 CCPM, the “Residual [^3H]PDBu binding to PKCα (% of control)” value (“Residual … (% of control)” for short) was 94.1 ± 2.4 % of control and the “Displacement assay raw data (CCPM)” value (20 µM test substance) was 4889 CCPM and 7960 CCPM and 7787 CCPM and 7605 CCPM and 5228 CCPM and 4729 CCPM. The “Displacement assay raw data (CCPM)” value (30 µM test substance) was 4835 CCPM and 7857 CCPM and 7587 CCPM and 5013 CCPM and 5317 CCPM.
`CCCCCCCCOC(=O)c1cc(C(=O)OCCCCCCCC)nc(CO)n1` [Compound 1b, Dioctyl 2-(hydroxymethyl)pyrimidine-4,6-dicarboxylate] was tested, and the “Displacement assay raw data (CCPM)” value (0,2 µM test substance) was 7480 CCPM and 1215 CCPM and 1126 CCPM and 1107 CCPM and 7956 CCPM and 7520 CCPM, the “Displacement assay raw data (CCPM)” value (1 µM test substance) was 7638 CCPM and 1213 CCPM and 1392 CCPM and 1115 CCPM and 7562 CCPM and 7593 CCPM and the “Displacement assay raw data (CCPM)” value (4 µM test substance) was 7531 CCPM and 1201 CCPM and 1408 CCPM and 1101 CCPM and 7673 CCPM and 7303 CCPM. For the same compound, the “Displacement assay raw data (CCPM)” value (10 µM test substance) was 7793 CCPM and 1222 CCPM and 1214 CCPM and 1251 CCPM and 7474 CCPM and 6957 CCPM, the “Residual … (% of control)” value was 104.8 ± 5.3 % of control and the “Displacement assay raw data (CCPM)” value (20 µM test substance) was 8435 CCPM and 1194 CCPM and 1172 CCPM and 1054 CCPM and 8891 CCPM and 9450 CCPM. The “Displacement assay raw data (CCPM)” value (30 µM test substance) was 6677 CCPM and 1407 CCPM and 1081 CCPM and 1070 CCPM and 6691 CCPM and 6936 CCPM.
In the case of `CCCCCCCCCCCOC(=O)c1cc(C(=O)OCCCCCCCCCCC)nc(CO)n1` [Compound 1c, Diundecyl 2-(hydroxymethyl)pyrimidine-4,6-dicarboxylate], the “Displacement assay raw data (CCPM)” value (0,2 µM test substance) is reported as 8135 CCPM and 9009 CCPM and 9090 CCPM, the “Displacement assay raw data (CCPM)” value (1 µM test substance) is reported as 7374 CCPM and 8410 CCPM and 8950 CCPM and the “Displacement assay raw data (CCPM)” value (4 µM test substance) is reported as 8779 CCPM and 7927 CCPM and 8172 CCPM. For the same compound, the “Displacement assay raw data (CCPM)” value (10 µM test substance) was 7968 CCPM and 8364 CCPM and 8092 CCPM, the “Residual … (% of control)” value was 103.7 ± 5.3 % of control and the “Displacement assay raw data (CCPM)” value (20 µM test substance) was 7670 CCPM and 9322 CCPM and 8225 CCPM. For the same compound, the “Displacement assay raw data (CCPM)” value (30 µM test substance) was 7089 CCPM and 8399 CCPM and 9539 CCPM.
With `CCCCC(CC)OC(=O)c1cc(C(=O)OCC)nc(CO)n1` (stereo not drawn) [Compound 1d, 4-ethyl 6-(heptan-3-yl) 2-(hydroxymethyl)pyrimidine-4,6-dicarboxylate] the “Displacement assay raw data (CCPM)” value (0,2 µM test substance) was 5785 CCPM and 11839 CCPM and 10949 CCPM and 11567 CCPM and 6093 CCPM and 6313 CCPM, the “Displacement assay raw data (CCPM)” value (1 µM test substance) was 5593 CCPM and 11705 CCPM and 12203 CCPM and 11600 CCPM and 5961 CCPM and the “Displacement assay raw data (CCPM)” value (4 µM test substance) was 5222 CCPM and 11573 CCPM and 11709 CCPM and 11091 CCPM and 5210 CCPM and 6475 CCPM. For the same compound, the “Displacement assay raw data (CCPM)” value (10 µM test substance) was 5570 CCPM and 12001 CCPM and 12205 CCPM and 11408 CCPM and 5899 CCPM and 5461 CCPM, the “Residual … (% of control)” value was 98.2 ± 1.6 % of control and the “Displacement assay raw data (CCPM)” value (20 µM test substance) was 5518 CCPM and 11664 CCPM and 11365 CCPM and 11482 CCPM and 5575 CCPM and 5277 CCPM. For the same compound, the “Displacement assay raw data (CCPM)” value (30 µM test substance) was 5500 CCPM and 12337 CCPM and 11581 CCPM and 11144 CCPM and 5029 CCPM and 5100 CCPM.
In the case of `CCCCC(CC)OC(=O)c1cc(C(=O)OC(CC)CCCC)nc(CO)n1` (stereo not drawn) [Compound 1e, Di(heptan-3-yl) 2-(hydroxymethyl)pyrimidine-4,6-dicarboxylate], the “Displacement assay raw data (CCPM)” value (0,2 µM test substance) is reported as 5837 CCPM and 9796 CCPM and 9740 CCPM and 9577 CCPM and 6148 CCPM and 6500 CCPM, the “Displacement assay raw data (CCPM)” value (1 µM test substance) is reported as 5874 CCPM and 9629 CCPM and 9242 CCPM and 9347 CCPM and 6081 CCPM and 6166 CCPM and the “Displacement assay raw data (CCPM)” value (4 µM test substance) is reported as 6376 CCPM and 9023 CCPM and 9333 CCPM and 9667 CCPM and 6505 CCPM and 6158 CCPM. For the same compound, the “Displacement assay raw data (CCPM)” value (10 µM test substance) was 5476 CCPM and 8845 CCPM and 9519 CCPM and 8799 CCPM and 5785 CCPM and 5946 CCPM, the “Residual … (% of control)” value was 86.7 ± 7.7 % of control and the “Displacement assay raw data (CCPM)” value (20 µM test substance) was 5873 CCPM and 9742 CCPM and 7884 CCPM and 7727 CCPM and 6291 CCPM and 6049 CCPM. The “Displacement assay raw data (CCPM)” value (30 µM test substance) was 5476 CCPM and 8529 CCPM and 8458 CCPM and 9304 CCPM and 5635 CCPM and 5882 CCPM.
`CCCCCC(CC)OC(=O)c1cc(C(=O)OC(CC)CCCCC)nc(CO)n1` (stereo not drawn) [Compound 1f, Di(octan-3-yl) 2-(hydroxymethyl)pyrimidine-4,6-dicarboxylate] was tested, and the “Displacement assay raw data (CCPM)” value (0,2 µM test substance) was 8395 CCPM and 7761 CCPM and 8223 CCPM, the “Displacement assay raw data (CCPM)” value (1 µM test substance) was 8430 CCPM and 8004 CCPM and 8035 CCPM and the “Displacement assay raw data (CCPM)” value (4 µM test substance) was 8187 CCPM and 8110 CCPM and 8243 CCPM. The “Displacement assay raw data (CCPM)” value (10 µM test substance) was 6268 CCPM and 7306 CCPM and 7650 CCPM, the “Residual … (% of control)” value was 88.3 ± 2.7 % of control and the “Displacement assay raw data (CCPM)” value (20 µM test substance) was 7244 CCPM and 7065 CCPM and 7340 CCPM. For the same compound, the “Displacement assay raw data (CCPM)” value (30 µM test substance) was 7174 CCPM and 7070 CCPM and 7370 CCPM.
In the case of `O=C(OCc1cccc(C(F)(F)F)c1)c1cc(C(=O)OCc2cccc(C(F)(F)F)c2)nc(CO)n1` [Compound 1g, Bis[3-(trifluoromethyl)benzyl] 2-(hydroxymethyl)pyrimidine-4,6-dicarboxylate], the “Displacement assay raw data (CCPM)” value (0,2 µM test substance) is reported as 5983 CCPM and 11409 CCPM and 12180 CCPM and 12791 CCPM and 7834 CCPM and 6792 CCPM, the “Displacement assay raw data (CCPM)” value (1 µM test substance) is reported as 5197 CCPM and 12142 CCPM and 12212 CCPM and 11135 CCPM and 5159 CCPM and 5208 CCPM and the “Displacement assay raw data (CCPM)” value (4 µM test substance) is reported as 7023 CCPM and 11774 CCPM and 11597 CCPM and 12149 CCPM and 8091 CCPM and 7399 CCPM. For the same compound, the “Displacement assay raw data (CCPM)” value (10 µM test substance) was 6399 CCPM and 11639 CCPM and 11927 CCPM and 11310 CCPM and 6008 CCPM and 6638 CCPM, the “Residual … (% of control)” value was 111.8 ± 6.5 % of control and the “Displacement assay raw data (CCPM)” value (20 µM test substance) was 7300 CCPM and 11874 CCPM and 12244 CCPM and 12079 CCPM and 8018 CCPM and 7727 CCPM. For the same compound, the “Displacement assay raw data (CCPM)” value (30 µM test substance) was 6005 CCPM and 11016 CCPM and 11803 CCPM and 12038 CCPM and 5730 CCPM and 6258 CCPM and the “Displacement of [^3H]PDBu from PKCα (in words)” value (concentration range of 0.2–30 μM) was “could not displace”.
For `CCOC(=O)c1cc(C(=O)OCC)nc(CO)n1` [Compound 1h, Diethyl 2-(hydroxymethyl)pyrimidine-4,6-dicarboxylate], the “Displacement assay raw data (CCPM)” value (0,2 µM test substance) was 6323 CCPM and 10230 CCPM and 10470 CCPM and 11100 CCPM and 5792 CCPM and 6513 CCPM, the “Displacement assay raw data (CCPM)” value (1 µM test substance) was 5802 CCPM and 9840 CCPM and 9837 CCPM and 10294 CCPM and 5441 CCPM and 6766 CCPM and the “Displacement assay raw data (CCPM)” value (4 µM test substance) was 5407 CCPM and 9299 CCPM and 9482 CCPM and 9928 CCPM and 5323 CCPM and 5809 CCPM. The “Displacement assay raw data (CCPM)” value (10 µM test substance) was 6198 CCPM and 9686 CCPM and 9902 CCPM and 9890 CCPM and 6355 CCPM and 6092 CCPM, the “Residual … (% of control)” value was 116.3 ± 5.9 % of control and the “Displacement assay raw data (CCPM)” value (20 µM test substance) was 6120 CCPM and 9294 CCPM and 10766 CCPM and 9965 CCPM and 5572 CCPM and 5876 CCPM. The “Displacement assay raw data (CCPM)” value (30 µM test substance) was 5421 CCPM and 9318 CCPM and 10014 CCPM and 8246 CCPM and 4984 CCPM and 6346 CCPM.
